# Calls of active or inactive are those of the source. The rule behind the calls is not given here.
# Test system: S. cerevisiae SKN7-toxicity growth rescue, plate reader
# Assay: Yeast SKN7 toxicity growth rescue counterscreen, Saccharomyces cerevisiae, plate reader, dose confirmatory (AID 624258);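 note: growth read after three days of incubation at 30 °C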
row,Compound,AC40
1,CCCCCCCCNC(=O)/C(C#N)=C/c1ccccc1[N+](=O)[O-],3.17 µM
2,Cc1cc(/C=N/n2cnnc2)c(C)n1-c1ccc(OCc2ccc(F)cc2)cc1,0.516 µM
3,C=CS(=O)(=O)c1ccc(Oc2ccc(S(=O)(=O)C=C)cc2)cc1,7.95 µM
4,O=C1c2ccccc2NC(c2ccc(Cl)cc2Cl)N1O (centres undefined),7.55 µM
5,Cc1ccc2c(C)c3ccc4ccccc4c3c[n+]2c1,0.247 µM
6,Cc1ccc([C@@H]2CC=C(C(=O)O)[C@H](c3ccc(Br)cc3)N2S(=O)(=O)c2ccccc2C)cc1,5.39 µM
7,O=C(N[C@@H](Cc1ccccc1)C(=O)CCl)OCc1ccccc1,1.14 µM
8,c1ccc2c(-c3c[nH]c4ccccc34)c3ccccc3nc2c1,5.73 µM
9,COc1ccc(-c2cc(C(=O)N3CCN(c4ccccc4F)CC3)c3ccccc3n2)c(OC)c1,> 19.5 µM (inactive)
10,CC(C)(c1cc(Br)c(O)c(Br)c1)c1cc(Br)c(O)c(Br)c1,1.26 µM
11,Cc1ccc(S(=O)(=O)N/N=C\c2ccc([N+](=O)[O-])o2)cc1C,10.5 µM
12,CC(C)(C)c1ccc(Oc2ccc(N)cc2)cc1,1.95 µM
13,Cc1ccc(Nc2c(-c3ccccc3O)nc3cnccn23)cc1,8.08 µM
14,O=c1c(Cl)c(Cl)cnn1Cc1nnc(-c2ccc(Cl)cc2)o1,7.97 µM
15,O=C1c2ccccc2NC(c2ccc(-c3ccc(C(F)(F)F)cc3)o2)N1O (centres undefined),1.71 µM
16,COc1cccc2c1C(=O)c1c(O)c3c(c(O)c1C2=O)C[C@@](O)(C(=O)CO)C[C@@H]3O[C@H]1C[C@H](N)[C@H](O)[C@H](C)O1,6.21 µM
17,CCCCCCCCCCOC(=O)Cn1c(COc2ccccc2)[n+](C)c2ccccc21,3.02 µM
18,Cc1nc(SCC(=O)N2CCN(c3ccccc3)CC2)c2oc3ccccc3c2n1,3.53 µM
19,COc1ccc(CNc2ncnc3sccc23)cc1,14.6 µM
20,CC(=O)Nc1ccc2c(c1)Cc1cc(N3C(=O)C=CC3=O)ccc1-2,0.236 µM
21,CSc1cccc(NC(=O)/C=C/c2cccc(Cl)c2)c1,4.52 µM
22,O=C(CSc1ccc(-c2ccccn2)nn1)NCc1ccccc1,7.08 µM
23,CCN(CC)c1ccc(/C=N/NC(=O)c2c(Cl)cnn2C)c(O)c1,0.878 µM

row,Compound,AC40
1,O=C(O)c1ccccc1NS(=O)(=O)c1cccc(-n2sc3ccccc3c2=O)c1,4.77 µM
2,Cc1cc(F)ccc1S(=O)(=O)N(C(=O)c1ccncc1)c1ccc(OC(=O)c2ccncc2)cc1,2.42 µM
3,N#C/C(=C\c1cccnc1)c1ccc([N+](=O)[O-])cc1,16.7 µM
4,O=C(NNC(=O)c1cc(Cl)ccc1O)c1ccc(NS(=O)(=O)c2cccs2)cc1,5.75 µM
5,CCCCNC1=CC(=O)C(=O)c2ccccc21,17.5 µM
6,O=C1C=C(c2ccccc2)C(=O)N1Nc1ccccc1,1.15 µM
7,CCOC(=O)CSC1=NC(=O)/C(=C\c2ccc(Cl)cc2)S1,6.09 µM
8,O=C(Oc1cc2oc(=O)cc(-c3ccccc3)c2cc1Cl)C1CCCCC1,8.04 µM
9,CCCCC(=O)NC(c1ccc(N(C)C)cc1)c1ccc2cccnc2c1O (centres undefined),0.754 µM
10,S=C(NCCCc1ccccc1)Nc1ccccc1Cl,5.29 µM
11,CCN=c1scc(C)n1/N=C/c1ccc(O)c(O)c1O,7.51 µM
12,O/C(=C\c1nc2ccccc2nc1/C=C(\O)c1ccccc1)c1ccccc1,4.59 µM
13,CCCCCCCN1N=C(C)C(C(=O)c2ccccc2)C1=O (centres undefined),0.764 µM
14,O=c1c(=Nc2ccccc2O)c(=O)c2ccccc12,1.06 µM
15,CCC(=O)NC(c1cc(Cl)c2cccnc2c1O)C(C)C (centres undefined),3.15 µM
16,Oc1ccccc1N=Cc1ccc[nH]1,> 0.75 µM (inactive)
17,CCOC(=O)C1=C(Cc2ccc(OC)cc2)C(=O)c2ccccc2C1=O,2.67 µM
18,Cc1cccc2sc(NNC(=O)c3ccc(S(=O)(=O)N4CC(C)CC(C)C4)cc3)nc12 (centres undefined),0.736 µM
19,CC(=O)NC(c1ccc(Cl)cc1Cl)c1ccc2cccnc2c1O (centres undefined),1.38 µM
20,CC1S/C(=C(\C#N)C(=O)NCc2ccco2)N(Cc2ccco2)C1=O (centres undefined),> 19.5 µM (inactive)
21,CCCC(=O)NC(c1ccccc1OC)c1ccc2cccnc2c1O (centres undefined),1.2 µM
22,C(=N\NC1=Nc2cccc3cccc1c23)/c1ccccn1,5.47 µM
23,COc1cccc(/C=N/NC(=O)c2cc(-c3cccn3C)n[nH]2)c1O,5.62 µM

row,Compound,AC40
1,Cc1cccc(C)c1NS(=O)(=O)c1ccc(-c2cnc(C3CC3)o2)cc1,7.85 µM
2,O=[N+]([O-])c1cccc(-c2cc(-c3cc(Br)ccc3O)[nH]n2)c1,8.39 µM
3,CN1CCN(C2CCN(c3ccc(Nc4nnc(Cl)c(Nc5ccccc5S(C)(=O)=O)n4)c(OC(CF)CF)c3)CC2)CC1,15.1 µM
4,O=C(Oc1cccc(C(=S)N2CCOCC2)c1)c1ccc([N+](=O)[O-])cc1[N+](=O)[O-],16.4 µM
5,CC(NC(=S)NC1CCC(C(C)(C)C)CC1)c1ccccc1 (centres undefined),6.16 µM
6,CCOC(=O)c1c(-c2ccccc2)oc2ccc(O)cc12,10.4 µM
7,COc1cccc(Oc2cncnc2-c2ccc(OC)cc2O)c1,18.9 µM
8,CC(C)CN=Cc1c(O)c([N+](=O)[O-])cc2oc3c(c12)CCCC3,1.25 µM
9,COc1ccc(-c2sc3ccccc3c2C#Cc2cncn2C)cc1,1.24 µM
10,O=[N+]([O-])c1ccc(N=Nc2ncc[nH]2)cc1,6.08 µM
11,Cc1nn(CCO)c(N)c1C1(O)C(=O)Nc2c(Cl)cc(Cl)cc21 (centres undefined),18.5 µM
12,Cc1nc2c(nc1C)C(=O)c1ccccc1C2=O,13 µM
13,COc1ccc(S(=O)(=O)N(C(=O)c2ccncc2)c2ccc(OC(=O)c3ccncc3)cc2)cc1,1.88 µM
14,CC(C)(C)n1nc(-c2ccc(F)cc2)c2c(N)ncnc21,15.4 µM
15,O/N=C/c1cc(Br)ccc1OCc1cccc(F)c1,5.83 µM
16,O=[N+]([O-])c1cc2oc3c(c2c(C=NCc2ccccc2)c1O)CCCC3,1.38 µM
17,Cc1cc2oc(=O)cc(-c3ccccc3)c2c(C)c1-c1ccc(CO)cc1,4.67 µM
18,Cc1ccc(-c2nn(C(C)(C)C)c3ncnc(N)c23)cc1,9.29 µM
19,CCN(CC)c1ccc(/C=N/NC(=O)c2cccc(S(=O)(=O)N3CCOCC3)c2)c(O)c1,1.39 µM
20,COC1=CC(=O)c2c(ccc3ncnc(N)c23)C1=O,10.1 µM
21,Cc1ccccc1CSCCNC(=O)COc1ccc(Cl)cc1,7.18 µM
22,O=C(Oc1cccc(NC(=O)c2ccccc2Cl)c1)c1ccc([N+](=O)[O-])cc1,14.1 µM
23,Cc1ccc(-c2nc3ccc(Cl)cc3c(=O)n2O)cc1,0.914 µM

row,Compound,AC40
1,COc1ccc(N2C(=O)C(Cl)=C(Nc3ccccc3O)C2=O)cc1,4.9 µM
2,COc1cccc(-n2nc(C#N)c(Cl)cc2=O)c1,2.08 µM
3,O=c1c(-c2cccc3ccccc23)[n+]([O-])c2ccccc2n1O,12.6 µM
4,CO/N=C/c1ccc(Oc2ccc([N+](=O)[O-])cc2[N+](=O)[O-])c(OC)c1,18.5 µM
5,COC(=O)/C=C\C(=O)Nc1cccc([N+](=O)[O-])c1,2.17 µM
6,Cc1ccc(N(CN2C(=O)c3ccccc3C2=O)C(=O)c2ccc([N+](=O)[O-])cc2[N+](=O)[O-])cc1,7.16 µM
7,Cc1cc(/C=C2\SC(=S)NC2=O)c(C)n1-c1cccc(O)c1,6.18 µM
8,O=Cc1cc(N=Nc2ccccc2Cl)ccc1O,0.446 µM
9,CC(/C=N/n1c(COc2ccccc2)n[nH]c1=S)=C\c1ccccc1,> 19.5 µM (inactive)
10,CC1CC(C)CC(C)C(O)C(C#N)=CC=CCC(C2CCCC2C(=O)O)OC(=O)CC(O)C(C)C1 (centres undefined),10.3 µM
11,Cc1ccccc1N1CCN(C2=NC(=O)/C(=C\c3cccs3)S2)CC1,4.83 µM
12,O=C(Oc1ccc(N(C(=O)c2ccncc2)S(=O)(=O)c2ccc(Cl)cc2)cc1)c1ccncc1,0.978 µM
13,Cc1ccc(C(C[N+](=O)[O-])c2c(N)n(C)c(=O)n(C)c2=O)cc1 (centres undefined),4.96 µM
14,COc1ccc2c(n1)Sc1nc3ccccc3nc1N2,0.649 µM
15,COc1cccc(/C=N/Nc2ncnc(Cl)c2N)c1O,3.72 µM
16,Cc1nn(CCC(N)=S)c2nc(-c3cccs3)cc(C(F)(F)F)c12,14.1 µM
17,COc1ccc2c(c1)OC[C@H]1[C@H]2N2C(=O)c3cc(Cl)ccc3NC(=O)[C@@]2(C)[C@H]1c1ccccc1,10.8 µM
18,CC(C)(C)n1nc(-c2ccc(Cl)cc2)c2c(N)ncnc21,12.6 µM
19,CC1CCc2sc(-c3n[nH]c(=S)o3)cc2C1 (centres undefined),0.663 µM
20,O=C(c1ccco1)N1CCN(C(=O)c2ccccc2OCc2ccc(Cl)cc2)CC1,19.1 µM
21,CCOC(=O)c1ccc(NC(=O)CC2C(=O)OCCN2CC)cc1 (centres undefined),4.89 µM
22,O=C(CCc1ccccc1)NNC(=S)NC(=O)c1ccccc1,0.923 µM
23,Cc1ccc(Sc2ccc([N+](=O)[O-])cc2[N+](=O)[O-])nc1,10.1 µM

row,Compound,AC40
1,O=C(CSc1nc2ccccc2s1)N/N=C/c1cc([N+](=O)[O-])ccc1O,3.97 µM
2,Cc1noc2ncnc(SCc3ccc(C(F)(F)F)cc3)c12,0.965 µM
3,COC1=C(OC)C(=O)C(Sc2ccc3ccccc3c2)=CC1=O,6.52 µM
4,Cc1ccc(NC2=CC(=O)C(=O)c3ccccc32)c(C)c1,18.7 µM
5,C[C@H](O)[C@H]1CC[C@H]2[C@@H]3CCC4=CC(=O)CC[C@]4(C)[C@H]3CC[C@]12C,2.05 µM
6,Cc1ccc(-n2nnnc2C(Cl)c2nnnn2-c2ccc(C)cc2)cc1,0.497 µM
7,C=CCN(CC=C)C(=S)NC(=O)c1ccc(OC)c(Br)c1,0.652 µM
8,Cc1nn(-c2nnc(NCc3ccccc3)nn2)c(C)c1Br,6.94 µM
9,c1cncc(-c2nnc(-c3cccnc3)nn2)c1,8.28 µM
10,Cc1ccc(S(=O)(=O)N2CCOC23CCN(C(=O)c2cc(Cl)ccc2Cl)CC3)cc1,7.25 µM
11,S=C(NCCCc1ccccc1)Nc1ccc(Br)cc1,4.26 µM
12,Cc1nnc(N/N=C/c2cccc(OCc3ccc(Cl)c(Cl)c3)c2)n1N,3.28 µM
13,N=c1c2c(-c3ccccc3)c(-c3ccccc3)n(Cc3ccco3)c2ncn1CCCn1ccnc1,2.92 µM
14,O=C1c2ccccc2NC(c2ccc(-c3cccc([N+](=O)[O-])c3)o2)N1O (centres undefined),4.74 µM
15,CCc1ccc([C@@H]2CC=C(C(=O)O)[C@H](c3ccc(Cl)cc3)N2S(=O)(=O)c2ccc(C)cc2)cc1,4.51 µM
16,O=[N+]([O-])c1cc(Cl)ccc1Sc1ccccn1,17.3 µM
17,c1ccc(Nc2cccc(Nc3ccccc3)c2)cc1,0.766 µM
18,Cc1oc2c(c1C(=O)c1ccc(Cl)cc1)C(=O)C(=O)c1ccccc1-2,1.27 µM
19,O=C(C1CC2C=CC1C2)N1CCN(c2ccccc2)CC1 (centres undefined),3.11 µM
20,CNC(=S)Nc1ccc(C23CC4CC(CC(C4)C2)C3)cc1,2.47 µM
21,COc1ccccc1CNC(=O)CSc1ccc(-c2ccccn2)nn1,10.3 µM
22,COc1cccc(/C=N/Nc2ncc(C(F)(F)F)cc2Cl)c1O,1.11 µM

# Reference: PubChem BioAssay AID624258 (Broad Institute, 2012)
